In ChEMBL document CHEMBL1157376, “Plasmid-mediated quinolone resistance determinant QnrB4 identified in France in an Enterobacter cloacae clinical isolate coexpressing a QnrS1 determinant” (2007):
Converted amounts (≈) assume the structure as drawn.

How the values were obtained:
Assay type in all cases: functional
Escherichia coli [1] = test: Antibacterial activity against Escherichia coli TOP10 by E-test
Escherichia coli [2] = test: Antibacterial activity against Escherichia coli TOP10 containing pS1A plasmid expressing quinolone resistance determinant QnrB4 by E-test
Escherichia coli [3] = test: Antibacterial activity against Escherichia coli TOP10 containing pS1B plasmid expressing quinolone resistance determinant QnrS1 by E-test
Enterobacter cloacae = test: Antibacterial activity against Enterobacter cloacae S1 isolate expressing quinolone resistance determinant QnrB4 by E-test

Structure (SMILES) | MIC (Escherichia coli [1]) [µg/mL] | MIC (Escherichia coli [2]) [µg/mL] | MIC (Escherichia coli [3]) [µg/mL] | MIC (Enterobacter cloacae) [µg/mL]
O=C(O)c1cn(C2CC2)c2cc(N3CCNCC3)c(F)cc2c1=O [CIPROFLOXACIN] | < 0.01 |  |  | 
COc1c(N2C[C@@H]3CCCN[C@@H]3C2)c(F)cc2c(=O)c(C(=O)O)cn(C3CC3)c12 [MOXIFLOXACIN] | < 0.01 | 0.12 (≈ 0.299 µM) | 0.25 (≈ 0.623 µM) | 
CCn1cc(C(=O)O)c(=O)c2ccc(C)nc21 [NALIDIXIC ACID] | 1 (≈ 4.31 µM) | 2 (≈ 8.61 µM) | 4 (≈ 17.2 µM) | > 256
CCn1cc(C(=O)O)c(=O)c2cc(F)c(N3CCNCC3)cc21 [NORFLOXACIN] | 0.03 (≈ 0.0939 µM) | 0.25 (≈ 0.783 µM) | 0.5 (≈ 1.57 µM) | > 32
CC1COc2c(N3CCN(C)CC3)c(F)cc3c(=O)c(C(=O)O)cn1c23 (stereo not drawn) [OFLOXACIN] |  |  | 0.25 (≈ 0.692 µM) | > 32
C[C@@H]1CN(c2c(F)c(N)c3c(=O)c(C(=O)O)cn(C4CC4)c3c2F)C[C@H](C)N1 [SPARFLOXACIN] | < 0.01 | 0.03 (≈ 0.0765 µM) | 0.25 (≈ 0.637 µM) | > 32
